Biological target: T1, EGFR TMLRCS (T790M/L858R/C797S) in BaF3-TMLRCS cell line (Homo sapiens, UniProt P00533, C797S/L858R/T790M)
T1 construct: host or cells: BaF3 (BaF3-TMLRCS cell line)
Assay: HTRF Phospho EGFR TMLRCS Assay (Cellular)
Assay type: cell-based
Details: BaF3-TMLRCS cells, 4 hours incubation
Protocol: HTRF Phospho EGFR TMLRCS Assay (Cellular)
BaF3-TMLRCS cell line were obtained from Crownbio (San Diego, Calif., USA). Cells were maintained at 37° C., 5% CO2 in RPMI ATCC (Gibco 31870)+2 mM Glutamine+0.5 μg/ml Puromycin supplemented with 10% fetal bovine serum (FBS) (Gibco).
Cells are transferred as above to Greiner Bio-One, Nr. 784-08 micro-titerplate at 20000 cells/well in 12.5 μl of growth medium/well after the plates had been pre-filled with 12.5 nl of DMSO solutions of the to be tested compounds (in dose response) or DMSO only. After spinning the plates at 300 ×g for 30 seconds the cells were incubated for 4 hours at 37 C, 5% CO2, 95% humidity. The cells were lysed by adding to the compound mix 4 μl/well of the supplemented lysis buffer (Cis-bio, Phospho-EGFR HTRF kit, 64EG1PEH), followed by incubation for 30 min at room temperature with shaking (400 rpm). The plates were then frozen and stored overnight at −80 C. […] The lidded plates were then incubated for 4 h at room temperature before reading the fluorescence emission at 616 and 665 nm using an Envision reader (Perkin Elmer). Data was analyzed in similar fashion as above using the normalized ratio of the 665 to 616 signals multiplied by 10000.

T1 sequence (P00533 25-1210 T790M/C797S/L858R): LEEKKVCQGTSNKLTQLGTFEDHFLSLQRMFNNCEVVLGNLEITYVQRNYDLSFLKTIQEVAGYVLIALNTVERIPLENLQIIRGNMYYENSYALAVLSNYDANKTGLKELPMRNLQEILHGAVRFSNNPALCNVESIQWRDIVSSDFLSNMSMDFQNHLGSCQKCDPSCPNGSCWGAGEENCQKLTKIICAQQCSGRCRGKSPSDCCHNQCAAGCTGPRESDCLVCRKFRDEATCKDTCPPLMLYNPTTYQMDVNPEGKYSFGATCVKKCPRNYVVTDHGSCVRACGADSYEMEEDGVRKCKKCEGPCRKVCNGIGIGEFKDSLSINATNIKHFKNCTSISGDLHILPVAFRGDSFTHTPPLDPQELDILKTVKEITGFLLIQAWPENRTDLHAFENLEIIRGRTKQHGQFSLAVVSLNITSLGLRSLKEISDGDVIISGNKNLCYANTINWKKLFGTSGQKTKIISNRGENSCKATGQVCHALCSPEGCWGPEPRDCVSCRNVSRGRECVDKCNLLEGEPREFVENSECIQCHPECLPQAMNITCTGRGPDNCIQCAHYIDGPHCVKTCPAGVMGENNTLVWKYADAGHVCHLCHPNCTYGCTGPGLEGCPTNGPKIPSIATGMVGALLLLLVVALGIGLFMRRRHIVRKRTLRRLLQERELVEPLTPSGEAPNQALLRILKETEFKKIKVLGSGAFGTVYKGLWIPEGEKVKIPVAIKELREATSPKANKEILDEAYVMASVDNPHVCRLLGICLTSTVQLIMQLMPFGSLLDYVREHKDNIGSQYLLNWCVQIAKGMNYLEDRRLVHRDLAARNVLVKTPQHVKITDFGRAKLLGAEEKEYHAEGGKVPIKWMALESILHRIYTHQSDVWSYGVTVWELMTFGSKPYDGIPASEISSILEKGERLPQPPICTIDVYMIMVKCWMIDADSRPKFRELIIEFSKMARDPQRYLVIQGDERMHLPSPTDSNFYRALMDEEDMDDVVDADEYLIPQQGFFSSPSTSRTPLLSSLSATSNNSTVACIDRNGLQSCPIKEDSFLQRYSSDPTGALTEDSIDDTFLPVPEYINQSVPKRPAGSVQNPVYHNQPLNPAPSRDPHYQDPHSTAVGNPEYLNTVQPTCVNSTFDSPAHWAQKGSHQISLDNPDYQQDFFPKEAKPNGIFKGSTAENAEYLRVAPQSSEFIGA

- IC50: 14 nM
Compound: O=C(Nc1nccs1)C(c1ncn2c1CCC2)N1Cc2c(cc(C#Cc3ccc(CN4CCC(O)CC4)cc3)cc2C(F)(F)F)C1=O (racemic) [Example 1, (2RS)-2-(6,7-Dihydro-5H-pyrrolo[1,2-c]imidazol-1-yl)-2-[6-[2-[4-[(4-hydroxy-1-piperidyl)methyl]phenyl]ethynyl]-1-oxo-4-(trifluoromethyl)isoindolin-2-yl]-N-thiazol-2-yl-acetamide]

Reference: patent US20220112199A1, “EGFR INHIBITOR FOR MEDICAL USE” (Hoffmann-La Roche Inc., priority 2019, published 2022)
